pIC50: −log10 of the molar value. Where two headings read alike, the source gives them in different places.
Tests used:
[1] = test system: human neonatal dermal fibroblasts (NDF); test: Resazurin viability assay, senescent vs proliferating/quiescent human neonatal dermal fibroblasts; assay type: cell-based; details: Homo sapiens, Fibroblast, 72 h, 72 hour exposure, resazurin
Procedure: FIG. 2. Compound A1.1 selectively kills senescent human neonatal dermal fibroblasts (NDF) cells in a dose- and time-dependent manner. (FIG. 2A) Normal proliferating and quiescent NDF cells, and the cells made senescent via exposure to genotoxic agents (doxorubicin, bleomycin and gamma-irradiation) were incubated with increasing concentrations of A1.1. At 72 hours post-treatment cell viability was measured via resazurin viability assay. (FIG. 2B) Compound A1.1 selectively kills senescent NDF cells in time-dependent manner discriminating between acute genotoxic stress and senescence. Acutely damaged NDF cells were irradiated with 4 Gy gamma-irradiation 24 hours before A1.1 treatment. Senescent NDF cells were treated with bleomycin or irradiated with 15 Gy and incubated for 14 days to induce senescence before treatment with A1.1. Proliferating acutely damaged and senescent NDF cell were treated with 1.875-30 μM A1.1 and viable cells were measured at 72 hours after treatment. Average and standard deviation are shown.
Normal proliferating and quiescent NDF cells, and the cells made senescent via exposure to genotoxic agents (doxorubicin, bleomycin and gamma-irradiation) were incubated with increasing concentrations of A1.1. At 72 hours post-treatment cell viability was measured via resazurin viability assay.
A1.1 selectively kills senescent human neonatal dermal fibroblasts (NDF) cells in time-dependent manner discriminating between acute genotoxic stress and senescence ([…]). Acutely damaged NDF cells were irradiated with 4 Gy gamma-irradiation 24 hours before A1.1 treatment. Senescent NDF cells were treated with bleomycin or irradiated with 15 Gy and incubated for 14 days to induce senescence before treatment with A1.1.
(§1) Cytotoxicity of A1.1 analogs against bleomycin-induced senescent human NDFs and rat dermal fibroblasts (RDFs). Activity of analogs was assessed from dose-response curves against irradiation- or bleomycin-induced senescent and proliferating cells to calculate IC50s (uM). The fold difference of proliferating versus senescent cell IC50s was used to assess the level of specific anti-senescent activity of the compounds.
(§2) For generation senescent human neonatal dermal fibroblasts (NDFs) and adult rat dermal fibroblasts (RDFs), cells are treated at ˜10 ug/ml bleomycin for 3 days (for bleomycin-induced senescence) or irradiated once at 20 Gy using a gamma irradiator (Cs source), followed by at least 7 day recovery in fresh medium for induction of senescence. Senescent and non-senescent (proliferating) cells for each cell line are plated into 384-w plate, followed by 72 hour exposure to a dose titration of compounds. Viability measurements are estimated using the resazurin viability assay. Using GraphPad Prism 5, the IC50 values are calculated from the non-linear regression of log-transformed compound concentrations versus dose-response normalized to background and non-treated controls.

[2] = test system: adult rat dermal fibroblasts (RDF); test: Resazurin viability assay, senescent vs proliferating rat dermal fibroblasts; assay type: cell-based; details: Rattus norvegicus, Fibroblast, 72 hour exposure, resazurin
Procedure: as §1, §2

[3] = test system: p16(Ink4a) expression in SAMs; test: p16(Ink4a) promoter-dependent luciferase activity in alginate bead-elicited macrophages (SAMs) ex vivo; assay type: cell-based, mouse; details: SAMs from NDF alginate beads; dose-response testing
Procedure: FIG. 7. Immunomodulatory regulation of p16(Ink4a) and SAβG in macrophages. Peritoneal lavage cells elicited by alginate-encapsulated SCs from p16^Ink4a/Luc mice were treated ex vivo with immunomodulatory agents for 72 hours. A) p16 promoter-dependent luciferase activity (black bars) and […] activity (via 4-MUG hydrolysis) (gray bars) were measured following treatment with M1- and M2-polarizing stimuli: LPS at 1 ng/mL, IFN-γ at 10 ng/mL, LPS/IFN-γ co-treatment, Poly(I:C) at 10 μg/mL, IFN-α at 100 U/mL, IL-4 at 20 ng/mL, IL-13 at 10 ng/ml, and IL-4/IL-13 co-treatment. Results are shown as the mean±standard deviation for at least 3 independent experiments, with statistical significance between treated compared to non-treated samples depicted. B) Dose-dependent response of JAK1/2 inhibitor Ruxolitinib on luciferase activity in elicited macrophages in the presence (gray bars) or absence (black bars) of IL-4 (10 ng/mL) stimulation. Enzyme activities are expressed as the percent activity relative to non-treated (NT) controls per cell. Statistical significance between IL-4 stimulated and non-stimulated cells at each concentration of ruxolitinib is shown.
FIG. 8. Immunomodulatory regulation of p16(Ink4a) and SAβG in macrophages. Peritoneal lavage cells elicited by alginate-encapsulated SCs from p16^Ink4a/Luc mice were treated ex vivo with immunomodulatory agents for up to 72 hours. (A) mRNA expression of p16(Ink4a) and β-galactosidase (Glb1) in macrophages (relative to B2m expression) with or without LPS stimulation for 72 hours analyzed via qRT-PCR, normalized to non-treated controls. (B) Microphotograph of SAβG-stained adherence-selected macrophages with or without stimulation with LPS (1 ng/mL) for 72 hours (10× objective). (C&D) Kinetics of p16(Ink4a) promoter-dependent luciferase activity per cell with or without LPS stimulation (C) or IL-4 stimulation (D), normalized to activity from non-treated cells at time zero. Results are shown as the mean±standard deviation for at least 3 experiments. Statistical significance with respect to non-treated control at time zero is indicated. (E) Luciferase activity and (3-galactosidase activity (via 4-MUG hydrolysis) from proteose peptone-elicited lavage cells following stimulation with IL-4 (20 ng/mL) for 72 hours, normalized to non-treated controls. (F) Viability following 72 hour dose-response to JAK1/2 inhibitor Ruxolitinib in the presence or absence of IL-4 (10 ng/mL) stimulation, measured by CyQuant Direct DNA-based viability assay. Viability normalized to respective controls lacking Ruxolitinib. (G&H) Dose-response of STAT6 inhibitor AS1517499 against luciferase activity (G) and viability via CyQuant Direct assay (H) following 72 hour treatment in the presence and absence of IL-4 (10 ng/mL). Results normalized to respective controls (with or without IL-4) lacking STAT6 inhibitor. Statistical significance is calculated with respect to the difference between IL-4 stimulated and non-stimulated cells at each concentration of STAT6 inhibitor. (I) Relative luciferase activity per cell following repolarization with M1- and M2-inducing agents. Macrophages were left non-treated (NT) or treated with either LPS (1 ng/ml) or IL-4 (20 ng/ml) for 72 hours (days 1-3), as indicated. For each treatment set, samples were collected at 72 hours (no further treatment; days 4-6=x). Alternatively, cells were washed and placed in fresh medium (−), medium containing LPS (1 ng/mL) and IFN-γ (10 ng/mL), or medium containing IL-4 (20 ng/mL) and IL-13 (10 ng/mL) and incubated for an additional 72 hours prior to sample collection (as indicated for days 4-6). Luciferase activity is expressed as the percent activity per cell relative to non-treated (NT) controls after the first 72 hours.
Luciferase activity of cell lysates was accessed using Bright-Glo™ Luciferase Assay System (Promega; Madison, Wis.) according to manufacturer's instructions with minor modifications. […]

[4] = proliferating NDF, read-out: IC50 NDFprolif
[5] = senescent NDF, bleomycin-induced, read-out: IC50 NDFsen.bleo
[6] = light or radiation study, senescent NDF, irradiation-induced, read-out: IC50 NDFsen.irr
[7] = light or radiation study, senescent RDF, irradiation-induced, read-out: IC50 RDFsen.irr
[8] = proliferating RDF, read-out: IC50 RDFprolif
[9] = senescent RDF, bleomycin-induced, read-out: IC50 RDFsen.bleo

SMILES | pIC50 [1, 4] | pIC50 [1, 5] | pIC50 [1, 6] | pIC50 [2, 7] | pIC50 [2, 8] | pIC50 [2, 9] | Modulation of p16(Ink4a): SAMs [3]
CCOC(=O)c1sc(SCc2ccccc2)c2c1CC(c1ccc(F)cc1)CC2=NO (stereo not shown) [Example A1.7, Ethyl 3-(benzylthio)-6-(4-fluorophenyl)-4-(hydroxyimino)-4,5,6,7-tetrahydrobenzo[c]-thiophene-1-carboxylate] | < 5.00 | > 5.60 | > 5.60 | > 5.60 | < 5.30 | > 5.60 | 
COc1ccc(C2CC(=NO)c3c(SCc4ccccc4)sc(C(=O)OCc4ccccc4)c3C2)cc1 (stereo not shown) [Example A1.8, Benzyl 3-(benzylthio)-4-(hydroxyimino)-6-(4-methoxyphenyl)-4,5,6,7-tetrahydrobenzo[c]-thiophene-1-carboxylate] | < 4.70 | > 5.00 |  |  |  |  | 
COc1ccc(C2C/C(=N\O)c3sc(NC(=O)COc4ccc(C)cc4)nc3C2)cc1 (stereo not shown) [Example A4.1] | < 5.30 | > 5.30 | > 5.60 | > 5.30 | > 5.00 | > 5.30 | 
O/N=C1\CC(c2ccccc2)Cc2nc(NCCOc3ccccc3)ncc21 (stereo not shown) [Example A2.2, 2-((2-Phenoxyethyl)amino)-7-phenyl-7,8-dihydroquinazolin-5(6H)-one oxime] | < 4.70 | > 5.60 | > 5.30 | > 5.60 | < 4.70 | > 5.60 | 
CN(C)C(=N)N=C(N)N [Metformin] |  |  |  |  |  |  | decrease
COc1ccc(C2C/C(=N\O)c3c(SCc4ccccc4)sc(C(=O)NCc4ccco4)c3C2)cc1 (stereo not shown) [Example A1.15, 3-(Benzylthio)-N-(furan-2-ylmethyl)-4-(hydroxyimino)-6-(4-methoxyphenyl)-4,5,6,7-tetrahydrobenzo[c]thiophene-1-carboxamide] | < 4.70 | > 5.30 | > 5.30 | > 5.30 | < 4.70 | > 5.59 | 
N#Cc1cc2c(nc1SCc1ccccc1)CC(c1ccccc1)C/C2=N\O (stereo not shown) [Example A3.2, 2-(Benzylthio)-5-(hydroxyimino)-7-phenyl-5,6,7,8-tetrahydroquinoline-3-carbonitrile] | < 4.70 | > 4.82 | > 5.00 | > 5.60 | < 4.70 | > 5.30 | 
CCOC(=O)c1sc(SCc2ccccc2)c2c1C(c1ccc(OC)cc1)CC/C2=N\O (stereo not shown) [Example A1.9, Ethyl 3-(benzylthio)-4-(hydroxyimino)-7-(4-methoxyphenyl)-4,5,6,7-tetrahydrobenzo[c]-thiophene-1-carboxylate] | < 4.70 | > 4.70 | > 4.70 | > 4.70 | < 4.70 | < 4.70 | 
COc1ccc(C2C/C(=N\O)c3c(SCc4ccccc4)sc(C(=O)NCc4ccccc4)c3C2)cc1 (stereo not shown) [Example A1.14, N-benzyl-3-(benzylthio)-4-(hydroxyimino)-6-(4-methoxyphenyl)-4,5,6,7-tetrahydrobenzo[c]thiophene-1-carboxamide] | < 4.70 | > 5.30 | > 5.30 | > 5.60 | < 4.70 | > 5.60 | 
Nc1nc(CCCc2ccccc2)c2c(n1)CC(c1ccccc1)C/C2=N\O (stereo not shown) [Example A2.3, 2-Amino-7-phenyl-4-(3-phenylpropyl)-7,8-dihydroquinazolin-5(6H)-one oxime] | < 4.70 | > 4.70 | > 4.70 |  | < 4.70 | > 4.82 | 
CCOC(=O)c1sc(Sc2ccccc2)c2c1CC(c1ccc(OC)cc1)C/C2=N\O (stereo not shown) [Example A1.5, Ethyl 4-(hydroxyimino)-6-(4-methoxyphenyl)-3-(phenylthio)-4,5,6,7-tetrahydro-benzo[c]thiophene-1-carboxylate] | < 5.00 | > 5.00 | > 5.00 | > 5.30 | < 5.00 | > 5.30 | 
Cc1ccc(CNc2ncc3c(n2)CC(c2ccccc2)C/C3=N\O)cc1 (stereo not shown) [Example A2.1, 2-((4-Methylbenzyl)amino)-7-phenyl-7,8-dihydroquinazolin-5(6H)-one oxime] | < 4.70 | > 5.30 | > 5.30 | > 5.30 | < 4.70 | > 5.30 | 
O=C(Nc1ccccc1)c1cc2c(nc1NCCOc1ccccc1)CC(c1ccccc1)C/C2=N\O (stereo not shown) [Example A3.1, 5-(Hydroxyimino)-2-((2-phenoxyethyl)amino)-N,7-diphenyl-5,6,7,8-tetrahydroquinoline-3-carboxamide] | > 5.30 | > 5.60 | > 5.60 | > 5.60 | < 4.70 | > 5.60 | 
CC1(C)CC(=NO)c2c(SCc3ccccc3)sc(C(=O)NCc3ccccc3)c2C1 [Example A1.4, N-benzyl-3-(benzylthio)-4-(hydroxyimino)-6,6-dimethyl-4,5,6,7-tetrahydrobenzo[c]thiophene-1-carboxamide] | < 4.70 | > 5.00 |  |  |  |  | 
O/N=C1\CC(c2ccccc2)Cc2nc(NCc3ccccc3)sc21 (stereo not shown) [Example A4.2, 2-(Benzylamino)-5-phenyl-5,6-dihydrobenzo[d]thiazol-7(4H)-one oxime] | < 4.70 | > 4.82 | > 4.82 | > 5.00 | < 4.70 | > 5.00 | 

— patent US20200123127A1, “REMOVAL OF SENESCENCE-ASSOCIATED MACROPHAGES” (EVERON BIOSCIENCES, INC., priority 2016, published 2020)
